Assay results published in patent US20260167619A2, “INDOLINE COMPOUNDS AND DERIVATIVES AS EGFR INHIBITORS” (BeOne Medicines I GmbH, priority 2020, published 2026).

Legend:
[1] = target: T1, EGFR (aa668-1210, Invitrogen) (Homo sapiens, UniProt P00533); assay: Biochemical EGFR inhibition assay (TR-FRET), wild-type EGFR; conditions: ATP at Km, 15 min pre-incubation, 60 min reaction; read-out: WT (Km ATP) IC50
T1 construct: EGFR (aa668-1210, Invitrogen); purchased Invitrogen
Summary of the method: (§1)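 Recombinant kinase domains pre-incubated with compound 15 min at room temperature in HEPES pH 7.5 buffer, then reacted 60 min with ATP at Km and biotin-poly GT substrate. Phosphotyrosine detected by TR-FRET (Eu-anti-pTyr/streptavidin-XL665, 665/620 nm ratio); IC50 from four-parameter logistic fit.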

[2] = target: T2, EGFR(L858R_T790M_C797S) (aa695-end, Invitrogen) (Homo sapiens, UniProt P00533, C797S/L858R/T790M); assay: Biochemical EGFR inhibition assay (TR-FRET), L858R/T790M/C797S mutant; conditions: ATP at Km, 15 min pre-incubation, 60 min reaction; read-out: LR_TM_CS (Km ATP) IC50
T2 construct: purchased Invitrogen
Summary of the method: as §1

[3] = target: EGFR(Dell9_T790M_C797S) (aa 669-1210, in house) (Homo sapiens, UniProt P00533, T790M/C797S, form not given); assay: Biochemical EGFR inhibition assay (TR-FRET), Del19/T790M/C797S mutant; conditions: ATP at Km, 15 min pre-incubation, 60 min reaction; read-out: Del_TM_CS (Km ATP) IC50
Summary of the method: as §1

BaF3-WT cells = BaF3-WT cells (Homo sapiens, UniProt P00533); assay: Cell antiproliferation assay (CellTiter-Glo), BaF3-WT; format: cell-based; conditions: 48 h treatment, read-out: BaF3-WT IC50
Summary of the method: (§2)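 Cells exposed 48 h to 8 doses from 5-fold serial dilution (500× DMSO stocks from 5 mM), final 0.2% DMSO. Viability by CellTiter-Glo luminescence; IC50 from four-parameter fit of percent inhibition versus concentration.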

BaF3-LR_TM_CS cells = BaF3-LR_TM_CS cells (Homo sapiens, UniProt P00533, T790M/C797S/L858R, cells depend on it); assay: Cell antiproliferation assay (CellTiter-Glo), BaF3-LR_TM_CS; format: cell-based; conditions: 48 h treatment, read-out: BaF3-LR_TM_CS IC50
Summary of the method: as §2

BaF3-Del_TM_CS cells = BaF3-Del_TM_CS cells (Homo sapiens, UniProt P00533, T790M/C797S, cells depend on it, form not given); assay: Cell antiproliferation assay (CellTiter-Glo), BaF3-Del_TM_CS; format: cell-based; conditions: 48 h treatment, read-out: BaF3-Del_TM_CS IC50
Summary of the method: as §2

T1 sequence (P00533 668-1210): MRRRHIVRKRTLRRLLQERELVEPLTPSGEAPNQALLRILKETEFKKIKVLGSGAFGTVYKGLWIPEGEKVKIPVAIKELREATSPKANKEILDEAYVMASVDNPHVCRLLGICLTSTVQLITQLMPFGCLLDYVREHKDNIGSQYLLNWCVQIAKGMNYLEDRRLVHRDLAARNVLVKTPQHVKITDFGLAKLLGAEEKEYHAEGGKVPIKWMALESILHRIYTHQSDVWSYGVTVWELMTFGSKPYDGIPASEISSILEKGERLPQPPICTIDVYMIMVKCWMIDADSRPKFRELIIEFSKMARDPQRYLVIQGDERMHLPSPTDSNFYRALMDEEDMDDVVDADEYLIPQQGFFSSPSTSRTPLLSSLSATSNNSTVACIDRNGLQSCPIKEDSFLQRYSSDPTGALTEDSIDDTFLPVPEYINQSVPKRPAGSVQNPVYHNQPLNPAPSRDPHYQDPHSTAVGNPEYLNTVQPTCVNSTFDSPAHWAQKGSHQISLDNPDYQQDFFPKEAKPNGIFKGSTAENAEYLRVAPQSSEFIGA
EGFR(Dell9_T790M_C797S) (aa 669-1210, in house), sequence (P00533 with tags, fused parts or gaps DEL746-750/T790M/C797S, form open): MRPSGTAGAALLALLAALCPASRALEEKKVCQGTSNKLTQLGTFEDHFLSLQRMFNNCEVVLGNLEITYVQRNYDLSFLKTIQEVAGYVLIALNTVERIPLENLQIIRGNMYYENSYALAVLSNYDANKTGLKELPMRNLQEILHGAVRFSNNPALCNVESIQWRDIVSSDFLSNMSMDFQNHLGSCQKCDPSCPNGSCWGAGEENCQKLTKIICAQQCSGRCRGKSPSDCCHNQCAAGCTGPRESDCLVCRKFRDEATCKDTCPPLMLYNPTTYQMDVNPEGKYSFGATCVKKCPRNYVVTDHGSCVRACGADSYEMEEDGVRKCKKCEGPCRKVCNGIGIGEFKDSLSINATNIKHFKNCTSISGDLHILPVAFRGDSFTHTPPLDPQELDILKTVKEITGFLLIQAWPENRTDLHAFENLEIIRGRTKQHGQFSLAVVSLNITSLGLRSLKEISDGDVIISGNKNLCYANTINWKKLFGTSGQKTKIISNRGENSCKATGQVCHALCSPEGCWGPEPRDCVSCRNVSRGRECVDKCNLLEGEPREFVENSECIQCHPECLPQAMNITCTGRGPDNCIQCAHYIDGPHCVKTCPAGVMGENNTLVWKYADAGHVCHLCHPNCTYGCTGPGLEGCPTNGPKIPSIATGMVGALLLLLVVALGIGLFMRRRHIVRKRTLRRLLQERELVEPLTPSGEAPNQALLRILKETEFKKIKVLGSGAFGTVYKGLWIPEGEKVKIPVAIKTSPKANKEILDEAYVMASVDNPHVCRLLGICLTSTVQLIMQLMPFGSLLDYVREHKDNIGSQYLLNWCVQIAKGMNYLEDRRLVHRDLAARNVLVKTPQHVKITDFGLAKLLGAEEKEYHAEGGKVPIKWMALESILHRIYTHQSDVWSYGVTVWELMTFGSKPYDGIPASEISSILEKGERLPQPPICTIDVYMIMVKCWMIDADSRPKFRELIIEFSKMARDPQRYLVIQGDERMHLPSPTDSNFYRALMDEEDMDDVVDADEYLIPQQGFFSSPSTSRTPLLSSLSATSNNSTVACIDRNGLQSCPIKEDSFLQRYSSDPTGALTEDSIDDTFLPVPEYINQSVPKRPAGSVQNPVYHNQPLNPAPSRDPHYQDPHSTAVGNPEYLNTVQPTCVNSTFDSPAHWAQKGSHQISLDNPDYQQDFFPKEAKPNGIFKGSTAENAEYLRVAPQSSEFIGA
BaF3-Del_TM_CS cells, sequence (P00533 with tags, fused parts or gaps DEL746-750/T790M/C797S, form open): as above
BaF3-WT cells, sequence (P00533 whole entry, change not shown): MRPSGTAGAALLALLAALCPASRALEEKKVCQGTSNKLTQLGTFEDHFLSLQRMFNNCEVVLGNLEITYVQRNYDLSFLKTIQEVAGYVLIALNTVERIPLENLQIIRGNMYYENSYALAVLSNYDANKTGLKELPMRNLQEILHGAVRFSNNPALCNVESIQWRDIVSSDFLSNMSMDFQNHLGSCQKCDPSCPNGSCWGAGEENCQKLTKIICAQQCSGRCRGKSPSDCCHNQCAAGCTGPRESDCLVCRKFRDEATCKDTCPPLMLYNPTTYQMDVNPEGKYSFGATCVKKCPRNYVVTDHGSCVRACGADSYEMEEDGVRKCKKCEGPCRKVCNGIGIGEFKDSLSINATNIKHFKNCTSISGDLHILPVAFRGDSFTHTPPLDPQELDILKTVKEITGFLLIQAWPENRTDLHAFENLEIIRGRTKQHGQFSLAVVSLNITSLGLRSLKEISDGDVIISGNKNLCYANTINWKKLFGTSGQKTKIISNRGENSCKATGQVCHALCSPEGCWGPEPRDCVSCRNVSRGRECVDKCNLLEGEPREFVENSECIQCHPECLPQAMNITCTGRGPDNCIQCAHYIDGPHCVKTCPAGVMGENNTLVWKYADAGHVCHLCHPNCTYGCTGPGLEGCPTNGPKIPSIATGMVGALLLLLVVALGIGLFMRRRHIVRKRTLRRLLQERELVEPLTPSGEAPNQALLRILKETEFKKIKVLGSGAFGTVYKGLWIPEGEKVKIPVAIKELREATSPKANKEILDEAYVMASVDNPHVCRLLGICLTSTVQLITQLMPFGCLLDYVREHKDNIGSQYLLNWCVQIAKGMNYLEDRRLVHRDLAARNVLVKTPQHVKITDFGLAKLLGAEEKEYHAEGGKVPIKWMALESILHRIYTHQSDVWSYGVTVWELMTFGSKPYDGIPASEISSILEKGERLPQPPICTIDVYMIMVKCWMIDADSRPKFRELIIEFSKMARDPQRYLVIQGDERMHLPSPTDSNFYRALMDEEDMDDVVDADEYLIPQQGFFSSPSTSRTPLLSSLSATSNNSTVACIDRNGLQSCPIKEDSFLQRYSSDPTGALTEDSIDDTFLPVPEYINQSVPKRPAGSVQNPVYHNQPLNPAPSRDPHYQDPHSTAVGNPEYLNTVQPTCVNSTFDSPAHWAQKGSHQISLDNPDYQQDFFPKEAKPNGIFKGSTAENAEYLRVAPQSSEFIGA
T2 sequence (P00533 695-1210 T790M/C797S/L858R): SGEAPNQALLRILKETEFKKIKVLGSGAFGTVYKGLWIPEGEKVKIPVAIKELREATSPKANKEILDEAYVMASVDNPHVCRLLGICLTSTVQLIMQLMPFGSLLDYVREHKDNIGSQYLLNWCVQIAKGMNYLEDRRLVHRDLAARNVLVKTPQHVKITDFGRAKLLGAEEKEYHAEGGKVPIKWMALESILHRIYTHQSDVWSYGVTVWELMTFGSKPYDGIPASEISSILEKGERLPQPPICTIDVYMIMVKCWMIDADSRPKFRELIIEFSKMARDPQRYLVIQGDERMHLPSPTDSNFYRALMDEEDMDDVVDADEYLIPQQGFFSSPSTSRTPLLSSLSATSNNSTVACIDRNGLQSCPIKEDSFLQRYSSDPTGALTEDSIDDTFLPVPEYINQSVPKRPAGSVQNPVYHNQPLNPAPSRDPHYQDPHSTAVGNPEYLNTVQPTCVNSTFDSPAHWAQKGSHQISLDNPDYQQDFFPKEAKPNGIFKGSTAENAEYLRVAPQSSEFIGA

| SMILES | IC50 [1] [nM] | IC50 [2] [nM] | IC50 [3] [nM] | GI50 (BaF3-WT cells) [nM] | GI50 (BaF3-LR_TM_CS cells) [nM] | GI50 (BaF3-Del_TM_CS cells) [nM] |
| --- | --- | --- | --- | --- | --- | --- |
| COc1cc(N2CCC(N3CCN(C)CC3)CC2)ccc1Nc1nc(Nc2cccc3c2N(S(C)(=O)=O)CC3)c2[nH]ccc2n1 [Example 71, N^2-(2-methoxy-4-(4-(4-methylpiperazin-1-yl)piperidin-1-yl)phenyl)-N^4-(1-(methylsulfonyl)indolin-7-yl)-5H-pyrrolo[3,2-d]pyrimidine-2,4-diamine] | 623 | 143 | 133 | 2210 | 1470 | 920 |
| CCc1cc(Nc2nc(Nc3cccc4c3N(S(C)(=O)=O)CC4)c3cc[nH]c3n2)c(OC)cc1N1CCC(N2CCN(C)CC2)CC1 [Example 94, N^2-(5-ethyl-2-methoxy-4-(4-(4-methylpiperazin-1-yl)piperidin-1-yl)phenyl)-N^4-(1-(methylsulfonyl)indolin-7-yl)-7H-pyrrolo[2,3-d]pyrimidine-2,4-diamine] | 29 | 1.1 | 1.5 | 640 | 84.8 | 10.9 |
| CN1CCN(c2ccc(Nc3nc(Nc4cccc5c4N(S(C)(=O)=O)CC5)c4cc[nH]c4n3)cc2F)CC1 [Example 84, N^2-(3-fluoro-4-(4-methylpiperazin-1-yl)phenyl)-N^4-(1-(methylsulfonyl)indolin-7-yl)-7H-pyrrolo[2,3-d]pyrimidine-2,4-diamine] | 150 | 1.5 | 1.6 | 335 | 78 | 10.7 |
| CNC(=O)N1CCc2cccc(Nc3nc(Nc4ccc(N5CCC(N6CCN(C)CC6)CC5)cc4OC)ncc3Cl)c21 [Example 16, 7-((5-chloro-2-((2-methoxy-4-(4-(4-methylpiperazin-1-yl)piperidin-1-yl)phenyl)amino)pyrimidin-4-yl)amino)-N-methylindoline-1-carboxamide] | 286 | 38 | 87 | 1980 | 1120 | 802 |

Now those with a lower IC50 [1], led by results:

| IC50 [1] [nM] | IC50 [2] [nM] | IC50 [3] [nM] | GI50 (BaF3-WT cells) [nM] | GI50 (BaF3-LR_TM_CS cells) [nM] | GI50 (BaF3-Del_TM_CS cells) [nM] | SMILES |
| --- | --- | --- | --- | --- | --- | --- |
| 4.7 | 0.61 | 1.6 | 853 | 141 | 27.4 | COc1cc(N2CCC(N3CCN(C)CC3)CC2)ccc1Nc1nc(Nc2cccc3c2N(S(C)(=O)=O)CC3)c2c(Cl)c[nH]c2n1 [Example 73, 5-chloro-N^2-(2-methoxy-4-(4-(4-methylpiperazin-1-yl)piperidin-1-yl)phenyl)-N^4-(1-(methylsulfonyl)indolin-7-yl)-7H-pyrrolo[2,3-d]pyrimidine-2,4-diamine] |
| 2.6 | 1.5 | 0.39 | 1870 | 143 | 46 | COc1cc(N2CCC(N3CCN(C)CC3)CC2)ccc1Nc1ncc(Cl)c(Nc2cccc3c2N(S(C)(=O)=O)CCC3)n1 [Example 10, 5-chloro-N^2-(2-methoxy-4-(4-(4-methylpiperazin-1-yl)piperidin-1-yl)phenyl)-N^4-(1-(methylsulfonyl)-1,2,3,4-tetrahydroquinolin-8-yl)pyrimidine-2,4-diamine] |
| 4.4 | 0.3 | 0.18 | 361 | 30.5 | 3.56 | CN(C)C1CCN(c2ccc(Nc3ncc(Br)c(Nc4cccc5c4N(S(C)(=O)=O)CC5)n3)c3c2CCO3)CC1 [Example 48, 5-bromo-N^2-(4-(4-(dimethylamino)piperidin-1-yl)-2,3-dihydrobenzofuran-7-yl)-N^4-(1-(methylsulfonyl)indolin-7-yl)pyrimidine-2,4-diamine] |
| 1.1 | 0.54 | 0.54 | 453 | 38.4 | 13.3 | COc1cc(N2CCC(N3CCN(C)CC3)CC2)ccc1Nc1ncc(Cl)c(Nc2cccc3c2N(S(C)(=O)=O)CC3C)n1 (stereo not drawn) [Example 23, 5-chloro-N^2-(2-methoxy-4-(4-(4-methylpiperazin-1-yl)piperidin-1-yl)phenyl)-N^4-(3-methyl-1-(methylsulfonyl)indolin-7-yl)pyrimidine-2,4-diamine] |
